From patent publication US6348614B1 (priority 1996, dated 2002)

Each compound was assayed on P.infestans (A2 mating type, resistant to metalaxyl). Details: Potato, 500 ppm, 6 days after inoculation.
Assay type: in vivo, Phytophthora infestans
CCCCCCCOC(=O)CC(C)NC(=O)c1ccc(OC)cc1 (stereo not shown) [compound 12, D,L N-4-methoxybenzoyl-3-aminobutyric acid heptyl ester] was tested, and the “Control efficacy (%) 6d” value was 89%. For CCCCCCCOC(=O)CC(C)NC(=O)c1cc(C)cc(C)c1 (stereo not shown) [compound 13, D,L N-3,5-dimethylbezoyl-3-aminobutyric acid heptyl ester], the “Control efficacy (%) 6d” value was 84%. In the case of CCCCCCCOC(=O)CC(C)NC(=O)c1c(F)cccc1F (stereo not shown) [compound 14, D,L N-2,6-difluorobenzoyl-3-aminobutyric acid heptyl ester], the “Control efficacy (%) 6d” value was 79%. In the case of CCCCCCCOC(=O)CC(C)NC(=O)c1ccc(C(C)(C)C)cc1 (stereo not shown) [compound 15, D,L N-4-tertbutylbenzoyl-3-aminobutyric acid heptyl ester], the “Control efficacy (%) 6d” value was 79%. For CCCCC(C)OC(=O)CC(C)NS(=O)(=O)c1ccc(C)cc1 (stereo not shown) [compound 16, D,L N-4-methylbenzenesulfonyl-3-aminobutyric acid i-methylpentyl ester], the “Control efficacy (%) 6d” value was 79%. In the case of CC(CC(=O)OCCCc1ccccc1)NS(=O)(=O)c1ccccc1 (stereo not shown) [compound 17, D,L N-benzenesulfonyl-3-aminobutyric acid 3-phenylpropyl ester], the “Control efficacy (%) 6d” value was 76%. With CCCCC(C)OC(=O)CC(C)NC(=O)c1ccc(Cl)cc1 (stereo not shown) [compound 18, D,L N-4-cholrobenzoyl-3-aminobutyric acid 1-methylpentyl ester] the “Control efficacy (%) 6d” value was 76%. With CC(CC(=O)OCCC(Cl)(Cl)Cl)NS(=O)(=O)c1ccccc1 (stereo not shown) [compound 19, D,L N-benzenesulfonyl-3-aminobutyric acid 2-(trichloromethyl)ethyl ester] the “Control efficacy (%) 6d” value was 75%. For CCC(C)OC(=O)CC(C)NS(=O)(=O)c1ccc(C)cc1 (stereo not shown) [compound 20, D,L N-4-methylbenzenesulfonyl-3-aminobutyric 1-methylpropyll ester], the “Control efficacy (%) 6d” value was 75%. With CCCC(C)OC(=O)CC(C)NC(=O)c1ccc(C)c(C)c1 (stereo not shown) [compound 21, D,L N-3,4-dimethylbezoyl-3-aminobutyric acid 1-methylbutyl ester] the “Control efficacy (%) 6d” value was 73%. With CCCCCCCOC(=O)CC(C)NC(=O)c1cccc(C)c1 (stereo not shown) [compound 22, D,L N-3-methylbezoyl-3-aminobutyric acid heptyl ester] the “Control efficacy (%) 6d” value was 70%. For CCCCCCCCOC(=O)CC(C)NC(=O)c1ccc(-c2cccs2)cc1 (stereo not shown) [compound 48, D,L N-4-2-thiophenebenzoyl-3-aminobutyric acid octyl ester], the “Control efficacy (%) 6d” value was 82%. With CCCCC(C)OC(=O)CC(C)NC(=O)c1ccc(-c2cccs2)cc1 (stereo not shown) [compound 49, D,L N-4-2-thiophenebenzoyl-3-aminobutyric acid 1-methylpentyl ester] the “Control efficacy (%) 6d” value was 75%. CCCCC(C)OC(=O)CC(C)NS(=O)(=O)c1ccc(Cl)cc1 (stereo not shown) [compound 50, D,L N-4-chlorobenzensulfonyl-3-aminobutyric acid 1-methylpentyl ester] was tested, and the “Control efficacy (%) 6d” value was 77%. With CC(CC(=O)OCCCc1ccccc1)NS(=O)(=O)c1ccccc1 (stereo not shown) [compound 51, D,L N-benzensulphonyl-3-aminobutyric acid 3-phenylpropyl ester] the “Control efficacy (%) 6d” value was 76%. With CCCCC(C)OC(=O)CC(C)NC(=O)c1ccccc1NC (stereo not shown) [compound 52, D,L N-2-methylaminobenzoyl-3-aminobutyric acid 1-methylpentyl ester] the “Control efficacy (%) 6d” value was 74%.
